Read-outs that look alike come from different tables or passages of the source.
Legend:
FGFR3 kinase = FGFR3 kinase (Homo sapiens, UniProt P22607); assay: Z-Lyte Kinase Assay of FGFR3; assay type: biochemical
Method: Example 25: Z-Lyte Kinase Assay of FGFR3
• 1. Materials and Reagents:
• 2. Reaction Steps: Plate Map
• 3. […] The final concentrations are 1, 0.33, 0.11, 0.037, 0.012, 0.004, 0.0014, 0.00046 μM, and the final concentration of DMSO is 2%. • 3) Kinase/Peptide Mixture (P/K solution): Prepare Kinase/Peptide Mixture by diluting the kinase to 0.7 μg/ml and the Z-LYTE™ Tyr 4 peptide to 4 μM in 1.33× Kinase Buffer. Mix gently by pipetting. • 4) Phospho-peptide Solution (PP solution): Add 0.4 μl of Z-LYTE™ Tyr 4 Phospho-peptide to 99.6 μl of 1.33× Kinase Buffer. • 5) ATP Solution: Prepare ATP Solution by diluting the 10 mM of ATP in 1.33× Kinase Buffer to 300 uM. • 6) Development Solution: Dilute Development Reagent B with Development Buffer as 1:128. • 4. […] Shake the plate for 30 Sec and centrifuge (1500 rpm, 1 min). • Seal the plate to protect from the light and incubate the plate for 1 hour at RT (25-30° C.). • 2) Development reaction • Add 5 μl of the Development solution to all wells. • Shake the plate for 30 Sec and centrifuge (1500 rpm, 1 min). • Seal the plate to protect from the light and incubate the plate for 1 hour at RT (25-30° C.). • 3) Stop and Read • Add 5 μl of the Stop reagent to all wells. • Shake the plate for 30 Sec and centrifuge (1500 rpm, 1 min). • Measure the value of Coumarin (Ex400 nm, Em445 nm) and fluorescein (Ex400 nm, Em520 nm), respectively. • 5. Data Analysis Emission Ratio(ER)=Coumarin Emission (445 nm)/Fluorescein Emission (520 nm) % Phosphorylation=1−[ER×C3520nm-C3445nm]/[(C1445nm-C3445nm)+ER×(C3520nm−C1520nm)] Inhibition rate (IR)=1−% Photest Cpd/% PhoC2 • 6. IC50 Value: determined with add-in software for Microsoft Excel, XLfit™ (version 2.0) from ID Business Solutions (Guildford, UK)

RT-112 = assay: Cellular Proliferation Assay (Cell Counting Kit-8), RT-112; assay type: cell-based; settings: Homo sapiens; RT-112 cells, 72 hours
Method: (§1) Example 26: Cellular Proliferation Assay
(§2) • 1. Cell Line • KG-1 (ATCC Accession No. CCL-246), • SNU-16 (ATCC Accession No. CRL-5974), • RT-112 (ECACC Accession No. 85061106) • 2. Assay Protocol • FGFR related cancer cell proliferation is measured in 96-well plates using Cell Counting Kit-8 (Dojindo CK04-13). • Seed 30000 cells/well of KG1, 5000 cells/well of SNU16, and 1000 cells/well of RT112 in a volume of 100 μL/well in growth media. • After 24 hours, dilute the test compound to 10, 3.3, 1.1, 0.37, 0.12, 0.04, 0.013, 0.004 μM, keeping the DMSO concentration at 5%. • Add 10 μL of 8-point compound series to the wells of culturing cells. • Incubate at 37° C. and 5% CO2 for 72 hours • Add 10 μL/well of CCkit8 and incubate at 37° C. and 5% CO2 for an hour • Detect the optical density of each well at 450 nm on Labsystems Multiskan K3. • 3. Data Analysis
(§3) [formula] Note: • ODcompound well represents the optical density of cells treated with compound. • ODcell well represents the optical density of cells without compounds treatment.(only 0.5% DMSO) • ODcontrol well represents the optical density of culture media background • IC50: determined with add-in software for Microsoft Excel, XLfit™ (version 2.0) from ID Business Solutions (Guildford, UK).

KG-1 = assay: Cellular Proliferation Assay (Cell Counting Kit-8), KG-1; assay type: cell-based; settings: Homo sapiens; KG-1 cells, 72 hours; read-out: KG1 IC50
Method: as §1, §2, §3

SNU-16 = assay: Cellular Proliferation Assay (Cell Counting Kit-8), SNU-16; assay type: cell-based; settings: Homo sapiens; SNU-16 cells, 72 hours
Method: as §1, §2, §3

Recombinant human FGFR2 = Recombinant human FGFR2 (Homo sapiens, UniProt P21802); assay: Transcreener Kinase Assay of FGFR2; assay type: biochemical
Method: Example 24: Transcreener Kinase Assay of FGFR2
• 1. […] Prepare Solution • Test compounds were solved in DMSO and were diluted with assay buffer to 5 folds of final concentration keeping the DMSO concentration at 5%. Further dilution are needed to make final concentrations are at 1, 0.33, 0.11, 0.037, 0.012, 0.004, 0.0014, 0.0005 μM; (the final concentration of DMSO is 1%). • Enzyme/Substrate stock Preparation: Recombinant human FGFR2 and Poly E4Y are both diluted in assay buffer. The final concentration is 0.3 ng/μL for FGFR2 and 62.5 ng/μL for Poly E4Y. The mixture is being kept in ice before use; • Prepare ATP Diluents, 10 mM ATP is diluted in assay buffer, the final concentration is 25 μM; • Prepare ADP Diluents: diluted ADP (500 μM) in assay buffer, the final concentration is 25 μM; • Prepare ATP standard curve stock as following:
• 3. Enzymatic Reaction • In a 96-well plate, add 5 μL of deluted solution of test compound or control solution. (positive control: 5 μL of 5% DMSO; negative control: 5 μL of 500 mM EDTA) into desired wells respectively; • Add 10 μL of Enzyme/Substrate stock into each well; • Add 10 μL of ATP Diluents to initiate the enzyme reaction and vortex the plate immediately on a plate shaker; • For the wells to make standard curve, add 5 μL of 5% DMSO, 10 μL of assay buffer and 10 μL of ATP standard curve stock. • Incubate the plate for 45 min at 28° C. on a plate shaker in a low speed. • 4. Stoping Reaction and Detecting ADP • Detection Mix Preparation: The mixture is made by dilution with MilliQ water; as following: ADP Alexa633 tracer (1:100), ADP antibody (1:158), and stop & detect buffer (1:10); • Tracer Only control Preparation: The mixture is made by dilution with MilliQ water; as following: ADP Alexa633 tracer (1:100), and stop & detect buffer (1: 10) • No Tracer control Preparation: stop & detect buffer is diluted with MilliQ water; by 10 fold. • Add 25 μL of detection mix, Tracer Only control and No Tracer control into corresponding wells, respectively; • Incubate at 28° C. for 1 h, on a plate shaker in a low speed; • Measure florescence polarization (mP) on TECAN F500. Excitation wavelength: 610 nm, Emission wavelength: 670 nm. • 5. Data Analysis
(§4) [formula] Note: • [ADP] in Compound well represents the ADP concentration in test compound well. • [ADP] in Positive control well represents the ADP concentration in 5% DMSO well • Conversion of mP value to ADP concentration is calculated based on the formula which determined by standard curve. And mP value is measured by following the instruction provided by BellBrook Labs. (www.bellbrooklabs.com). • 6. IC50: determined with add-in software for Microsoft Excel, XLfit™ (version 2.0) from ID Business Solutions (Guildford, UK).

Recombinant human FGFR1 = Recombinant human FGFR1 (Homo sapiens, UniProt P11362); assay: Transcreener Kinase Assay of FGFR1; assay type: biochemical
Method: • 1. […] Prepare Solution • Test compounds were solved in DMSO and were diluted with assay buffer to 5 folds of final concentration keeping the DMSO concentration at 5%. Further dilution are needed to make final concentrations are at 1, 0.33, 0.11, 0.037, 0.012, 0.004, 0.0014, 0.0005 μM; (the final concentration of DMSO is 1%). • Enzyme/Substrate stock Preparation: Recombinant human FGFR1 and Poly E4Y are both diluted in assay buffer.
• 3. Enzymatic Reaction • In a 96-well plate, add 5 μL of diluted solution of test compound or control solution. (positive control: 5 μL of 5% DMSO; negative control: 5 μL of 500 mM EDTA) into desired wells respectively; • Add 10 μL of Enzyme/Substrate stock into each well; • Add 10 μL of ATP Diluents to initiate the enzyme reaction and vortex the plate immediately on a plate shaker; • For the wells to make standard curve, add 5 μL of 5% DMSO, 10 μL of assay buffer and 10 μL of ATP standard curve stock. • Incubate the plate for 45 min at 28° C. on a plate shaker in a low speed. • 4. […] Excitation wavelength: 610 nm, Emission wavelength: 670 nm. • 5. Data Analysis
as §4

Sequence of Recombinant human FGFR1 (P11362 22-822): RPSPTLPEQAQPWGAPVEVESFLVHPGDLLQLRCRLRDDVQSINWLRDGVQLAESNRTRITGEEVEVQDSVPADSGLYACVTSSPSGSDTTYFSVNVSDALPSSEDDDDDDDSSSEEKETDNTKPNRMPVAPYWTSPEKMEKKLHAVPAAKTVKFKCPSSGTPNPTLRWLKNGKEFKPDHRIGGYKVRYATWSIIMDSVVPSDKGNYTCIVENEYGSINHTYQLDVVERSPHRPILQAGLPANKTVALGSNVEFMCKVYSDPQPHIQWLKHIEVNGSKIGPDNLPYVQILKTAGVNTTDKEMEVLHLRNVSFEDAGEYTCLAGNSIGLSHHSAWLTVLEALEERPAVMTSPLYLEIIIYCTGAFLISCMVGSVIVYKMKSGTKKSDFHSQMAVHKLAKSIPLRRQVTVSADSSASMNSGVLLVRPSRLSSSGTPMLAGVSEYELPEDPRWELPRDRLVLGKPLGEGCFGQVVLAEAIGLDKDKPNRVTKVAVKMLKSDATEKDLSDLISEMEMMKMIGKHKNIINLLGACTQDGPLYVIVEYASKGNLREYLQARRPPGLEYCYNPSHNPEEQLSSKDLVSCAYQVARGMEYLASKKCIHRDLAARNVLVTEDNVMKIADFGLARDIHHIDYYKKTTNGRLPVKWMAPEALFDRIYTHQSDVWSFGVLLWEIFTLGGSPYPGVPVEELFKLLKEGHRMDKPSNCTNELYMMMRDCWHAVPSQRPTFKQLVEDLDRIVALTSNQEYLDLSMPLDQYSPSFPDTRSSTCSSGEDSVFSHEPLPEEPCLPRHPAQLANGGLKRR
Sequence of Recombinant human FGFR2 (P21802 22-821): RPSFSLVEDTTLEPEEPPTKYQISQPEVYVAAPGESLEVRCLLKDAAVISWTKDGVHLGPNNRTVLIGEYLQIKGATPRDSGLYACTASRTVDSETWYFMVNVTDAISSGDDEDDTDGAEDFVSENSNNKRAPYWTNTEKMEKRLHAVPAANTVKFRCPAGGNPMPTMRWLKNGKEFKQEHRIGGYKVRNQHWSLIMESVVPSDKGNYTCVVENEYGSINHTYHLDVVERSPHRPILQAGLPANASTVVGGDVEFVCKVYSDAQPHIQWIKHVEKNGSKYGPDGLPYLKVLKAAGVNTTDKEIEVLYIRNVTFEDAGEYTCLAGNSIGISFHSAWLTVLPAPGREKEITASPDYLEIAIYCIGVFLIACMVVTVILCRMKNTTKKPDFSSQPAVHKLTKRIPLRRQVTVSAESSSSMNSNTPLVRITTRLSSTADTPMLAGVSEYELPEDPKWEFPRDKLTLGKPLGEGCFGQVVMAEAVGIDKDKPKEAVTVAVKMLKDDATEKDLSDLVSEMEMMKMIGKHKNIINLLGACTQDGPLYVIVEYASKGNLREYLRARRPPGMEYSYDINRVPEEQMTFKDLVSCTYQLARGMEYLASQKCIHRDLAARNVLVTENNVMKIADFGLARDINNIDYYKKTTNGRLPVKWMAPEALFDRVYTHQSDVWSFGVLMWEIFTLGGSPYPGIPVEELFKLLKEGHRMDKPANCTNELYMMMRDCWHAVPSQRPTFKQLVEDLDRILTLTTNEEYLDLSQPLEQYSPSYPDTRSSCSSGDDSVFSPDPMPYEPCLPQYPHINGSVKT
Sequence of FGFR3 kinase (P22607 23-806): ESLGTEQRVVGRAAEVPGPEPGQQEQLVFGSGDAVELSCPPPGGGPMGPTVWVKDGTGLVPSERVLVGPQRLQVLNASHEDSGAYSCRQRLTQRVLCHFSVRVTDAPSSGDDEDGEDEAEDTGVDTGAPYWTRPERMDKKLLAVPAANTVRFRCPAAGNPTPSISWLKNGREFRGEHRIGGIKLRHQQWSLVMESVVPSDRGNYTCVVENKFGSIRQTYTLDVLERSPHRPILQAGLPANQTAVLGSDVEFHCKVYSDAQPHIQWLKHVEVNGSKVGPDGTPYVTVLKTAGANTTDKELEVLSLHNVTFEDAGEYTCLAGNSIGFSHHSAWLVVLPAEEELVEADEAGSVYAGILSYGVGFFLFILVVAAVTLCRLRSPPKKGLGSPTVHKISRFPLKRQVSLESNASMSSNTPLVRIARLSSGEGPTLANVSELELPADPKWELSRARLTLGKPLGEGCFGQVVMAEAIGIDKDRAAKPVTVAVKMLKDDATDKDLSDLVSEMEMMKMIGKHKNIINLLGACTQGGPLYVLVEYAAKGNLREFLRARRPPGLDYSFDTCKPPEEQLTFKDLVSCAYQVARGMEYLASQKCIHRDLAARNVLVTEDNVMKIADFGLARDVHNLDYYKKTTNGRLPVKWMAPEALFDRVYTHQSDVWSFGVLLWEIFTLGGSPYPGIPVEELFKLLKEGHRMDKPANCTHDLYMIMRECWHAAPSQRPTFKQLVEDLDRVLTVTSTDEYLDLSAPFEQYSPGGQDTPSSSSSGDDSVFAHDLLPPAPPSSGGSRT

Row | Compound | IC50 (FGFR3 kinase) [nM] | IC50 (SNU-16) [nM] | IC50 (Recombinant human FGFR2; read-out: FGFR2 (FP) IC50) [nM] | IC50 (Recombinant human FGFR1; read-out: FGFR1 (FP) IC50) [nM] | IC50 (FGFR3 kinase; Z-lyte) [nM] | IC50 (Recombinant human FGFR2; FP) [nM] | IC50 (Recombinant human FGFR1; FP) [nM] | IC50 (RT-112) [nM] | IC50 (KG-1) [nM]
1 | CNC(=O)c1cc(COc2cnc(Nc3ccc(S(C)(=O)=O)cc3)nc2)c(F)c(OC)c1 [Compound 226] | 27 | 32 | 10 | 30 |  |  |  | 285 | 35
2 | CNC(=O)c1cc(CCc2cnc(Nc3ccc(N4C[C@@H](C)N(C)[C@@H](C)C4)cc3)nc2)c(F)c(OC)c1 [Compound 171] | 11 | 16 | 8 | 12 |  |  |  | 43 | 8
3 | CNC(=O)c1cc(COc2cnc(Nc3ccc(CCN(C)C)cc3)nc2)c(F)c(OC)c1 [Compound 225] | 11 | 14 | 15 | 26 |  |  |  | 21 | 7
4 | CNC(=O)c1cc(CCc2cnc(Nc3ccc(N4C[C@@H](C)N[C@@H](C)C4)c(OC)c3)nc2)c(F)c(OC)c1 [Compound 156] | 6 | 9 | 6 | 14 |  |  |  | 13 | 218
5 | CNC(=O)c1cc(CCc2cnc(Nc3ccc(N4CCN(C)CC4)c(OC)c3)nc2)c(F)c(OC)c1 [Compound 172] | 6 | 4 | 6 | 7 |  |  |  | 12 | 13
6 | CNC(=O)c1cc(COc2cnc(Nc3cccc(-n4nccn4)c3)nc2)c(Cl)c(OC)c1 [Compound 232] | 228 | 60 | 9 | 17 |  |  |  | 107 | 70
7 | CNC(=O)c1cc(COc2cnc(Nc3cnn(C[C@@H]4COC(C)(C)O4)c3)nc2)c(F)c(OC)c1 [Compound 248] | 14 | 9 | 11 | 16 |  |  |  | 21 | 6

Further lines, with some results ahead:

Row | IC50 (FGFR3 kinase) [nM] | IC50 (SNU-16) [nM] | IC50 (Recombinant human FGFR2; read-out: FGFR2 (FP) IC50) [nM] | IC50 (Recombinant human FGFR1; read-out: FGFR1 (FP) IC50) [nM] | IC50 (FGFR3 kinase; Z-lyte) [nM] | IC50 (Recombinant human FGFR2; FP) [nM] | IC50 (Recombinant human FGFR1; FP) [nM] | Compound | IC50 (RT-112) [nM] | IC50 (KG-1) [nM]
8 | 18 | 7 | 13 | 26 |  |  |  | CNC(=O)c1cc(COc2cnc(Nc3ccc(N4CCOCC4)c(OC)c3)nc2)c(F)c(OC)c1 [Compound 261] | 13 | 19
9 |  | 33 |  |  | 43 | 24 | 39 | CNC(=O)c1cc(COc2cnc(Nc3ccc([C@H]4CCCN(C(C)=O)C4)nc3)nc2)c(Cl)c(OC)c1 [Compound 284] | 72 | 71
10 | 18 | 36 | 14 | 20 |  |  |  | CNC(=O)c1cc(COc2cnc(Nc3cnc(N4C[C@@H](C)N[C@@H](C)C4)c(F)c3)nc2)c(F)c(OC)c1 [Compound 277] | 109 | 57
11 | 39 | 22 | 40 | 100 |  |  |  | CCN1CCC(c2ccc(Nc3ncc(OCc4cc(C(=O)NC)cc(OC)c4F)cn3)cn2)CC1 [Compound 256] | 57 | 202
12 | 13 | 39 | 14 | 24 |  |  |  | CNC(=O)c1cc(COc2cnc(Nc3ccnc(N4C[C@@H](C)N[C@@H](C)C4)c3)nc2)c(F)c(OC)c1 [Compound 259] | 141 | 220
13 | 8 | 15 | 9 | 10 |  |  |  | CCN1CCN(c2ccc(Nc3ncc(OCc4cc(C(=O)NC)cc(OC)c4Cl)cn3)cn2)CC1 [Compound 272] | 31 | 18
14 |  | 23 |  |  | 26 | 12 | 29 | CNC(=O)c1cc(C#Cc2cnc(Nc3ccc(N4C[C@@H](C)N[C@@H](C)C4)c(OC)c3)nc2)c(F)c(OC)c1 [Compound 306] | 16 | 100
15 | 6 | 14 | 5 | 5 |  |  |  | CNC(=O)c1cc(COc2cnc(Nc3ccc(N4CCN(C)CC4)nc3)nc2)c(Cl)c(OC)c1 [Compound 263] | 28 | 7
16 | 20 | 18 | 16 | 21 |  |  |  | CNC(=O)c1cc(COc2cnc(Nc3ccc(N4C[C@@H](C)N(C)[C@@H](C)C4)nc3)nc2)c(F)c(OC)c1 [Compound 268] | 47 | 17

From patent publication US9701680B2, “Pyrimidine and pyridine compounds and their usage” (HUTCHISON MEDIPHARMA LIMITED, priority 2013, dated 2017)
